These results are taken from patent publication US8207293B2, “Peptides derived from maurocalcine used as vectors for intracellular addressing of molecules of interest” (Commissariat a l'Energie Atomique, priority 2004, dated 2012).

For one experiment, the system named is live cells. The experiment can be described thus: Flow cytometry analysis of cellular penetration at increasing extracellular KCl (membrane potential). It counts as cell-based. Particulars: for mean fluorescence value: 100 nM complex, 1 hour. The protocol:
The MCab-Strept-Cy^5 complexes were prepared in solutions containing various NaCl/KCl ratios (composition in mM: 145 to 5 NaCl, 5 to 145 KCl, 2.5 CaCl2, 1.2 MgCl2, 10 glucose, 10 HEPES, pH 7.4).
The cells were washed twice with the NaCl/KCl solution used to prepare the complexes, and then incubated with maurocalcine and the derived peptides, which are biotinylated and complexed with streptavidin-cyanin 3 (MCab-Strept-Cy^3 complexes), at the final concentration of 100 nM in the same NaCl/KCl solution, in the dark and at ambient temperature for 1 hour. After 2 washes in the same NaCl/KCl buffer, the cyanin 3 fluorescence was analyzed on live cells, using a flow cytometer (FACScalibur, BECTON DICKINSON). The data were recorded and analyzed using appropriate software (CellQuest, BD BIOSCIENCES). The live cells were sorted according to their size and their granulosity (forward/side scattering), over a total of 10 000 events.

Experiment [1] concerns CA1 hippocampal neurons, HEK293 cells, L6 cells. Description: Cell penetration of biotinylated peptide/Strept-Cy3 complexes in various cell cultures, confocal microscopy of fixed cells. The experiment is classed as cell-based. Particulars: 100 nM, 30 min, ambient temperature. The method, then:
Soluble streptavidin-cyanin 3 and streptavidin-cyanin 5 (Strept-Cy^3 and Strept-Cy^5, AMERSHAM) were mixed with 4 molar equivalents of biotinylated maurocalcine (1 mM) or biotinylated maurocalcine-derived peptide, in phosphate buffer (PBS, in mM: 136 NaCl, 1.47 Na2HPO4, 2.6 KCl, 1 CaCl2, 0.5 MgCl2, pH 7.2), for 2 hours at 37° C. and in the dark.
The cells were incubated with maurocalcine and the derived peptides, biotinylated and complexed with streptavidin-cyanin 3 or with streptavidin-cyanin 5, at the final concentration of 100 nM in PBS, in the dark and at ambient temperature, for 30 minutes to 1 hour. […] The Alexa-488 and Cy3 or propidium iodide (PI) fluorescences were excited sequentially and then recorded. The Cy3 fluorescence was excited using a 543 nm helium-neon laser beam and the fluorescence emission was recorded between 554 nm and 625 nm. […]
The primary rat hippocampal neurons and the cells of the HEK293 line and the L6 line (before and after differentiation) are incubated for 30 min at ambient temperature, with 100 nM or 333 nM of maurocalcine-derived peptide, biotinylated and complexed with streptavidin-Cy3, or else 100 nM or 333 nM of MCab/Strept-Cy3, as a control. The cells are fixed and the fluorescence is observed by confocal microscopy.

The next experiment deals with HEK293 cells. Description: Flow cytometry analysis of cellular penetration of complexes (trypsin/heparin treatment). It counts as cell-based, human. The settings on record: 10 nM to 1 μM complexes. The method, then:
The cells are incubated with maurocalcine and the derived peptides, biotinylated and complexed with […], at the final concentration of 100 nM in PBS, in the dark and at ambient temperature for 1 hour. After 2 washes in PBS (PBS, in mM: […], 6.84 Na2HPO4, 3.16 NaH2PO4, pH 7.2), and the cells were treated with trypsin (1 mg/ml, INVITROGEN), for 10 min at 37° C., in order to remove the extracellular complexes and the plasma-membrane-bound complexes. After the incubation with trypsin, the cell suspension was centrifuged at 500 g and the cells were resuspended in PBS containing 1 μg/ml of propidium iodide (SIGMA). […] The analysis was carried out on live cells, using a flow cytometer (FACScalibur, BECTON DICKINSON). The data were recorded and analyzed using appropriate software (CellQuest, BD BIOSCIENCES). The live cells were sorted according to their size and their granulosity (forward/side scattering), over a total of 10 000 events.
The analysis is carried out as described in Example 1. For the heparin treatment experiments, the complexes were prepared in a heparin solution (bovine intestine heparin, sodium salt, SIGMA) and the cells were washed twice with the heparin solution, before and after incubation with the complexes prepared in the same heparin solution.
The cellular penetration was analyzed by flow cytometry, on cells incubated with the MCab/Strept-Cy3 complexes, and then treated with trypsin, so as to remove the complexes bound to the plasma membrane by means of lipids, specific receptors or heparan sulfate glycosaminoglycan (HPSG). It has been shown that this method makes it possible to effectively study the entry of penetrating peptides into cells (Richard et al., J. Biol. Chem., 2003, 278, 585-590).

On to “MCab/Strept-Cy3: biotinylated maurocalcine, complexed with cyanin-3-labeled streptavidin”, for which the mean fluorescence value turned out to be 145 with live cells (5 mM KCl), 40 in the experiment with live cells (125 mM KCl) and 17 in the experiment with live cells (145 mM KCl). The “decreasing slope a (linear regression of fluorescence vs KCl concentration)” value in the experiment on live cells (fit y=y0+a×x) was −0.72. In addition, the “maximum fluorescence y0 (linear regression vs KCl concentration)” value in the experiment on live cells (fit y=y0+a×x) turned out to be 139.5. Besides, in experiment [1], the “Cy3 labeling of cells (transduction)” value was “strong uniform labeling of the plasma membrane and of the cytoplasm of all the cells”. Also, the saturability of penetration entry in the experiment with HEK293 cells was “cannot be saturated”.
